According to patent US6610471B1, “Methods and compositions to investigate infection by hepatitis B virus and agents to prevent and treat the infection” (priority 1998, dated 2003):

Columns and labels:
Format in all cases: cell-based, hepatitis B virus
HBV [1] = experiment: Extracellular HBV DNA secreted by HBV baculovirus infected HepG2 cells (Southern blot, densitometry)
Description: (§1) (T). […] Relaxed circular (RC) and double-stranded (DS) forms of HBV DNA are indicated. […] (T). […] Replicative intermediates were analyzed by Southern blotting. Double-stranded (DS) and single-stranded (SS) forms of HBV genomic DNA are indicated.
One limitation of using stable cell lines, such as HepG2 2.2.15 cells, for evaluating the efficacy of an antiviral on HBV replication is that the magnitude of virus replication is at a static level predetermined by the number of integrated HBV genome copies. […] Cultures were fed fresh 3TC supplemented medium daily. After 3 days of treatment (4 days p.i.). DNA was extracted from the medium of treated and untreated control cultures and analyzed by Southern Blotting. Autoradiograms shown indicate different elngths of time of exposure of the blot to film: 1 hour (A), 2 hours (B), 4 hours (C), and 8 hours (D). Relaxed circular (RC) and double-stranded (DS) forms of HBV DNA are indicated. The largest reduction of extracellular HBV DNA (>99% reduction after six days of treatment) occurred in cells infected with 25 pfu of baculovirus, the lowest multiplicity tested. […] However, it is also important to note that even a 96% reduction in HBV replication still allowed high levels of HBV virions to be secreted from 3TC-treated cells which were replicating very high levels of HBV (i.e. cells infected with HBV baculovirus at a high moi).
(§2) HepG2 cells were seeded at approximately 20% to 40% confluency and then were grown for 16 to 24 hours before infection. On the day of infection, duplicate plates of cells were trypsinized, and viable cell number was determined with a hemocytometer using Trypan blue exclusion. Average cell counts were calculated and used to determine the volume of high-titer viral stock necessary to infect cells at the indicated moi. Baculovirus was diluted into MEM-FBS to achieve the appropriate moi using volumes of 1.0 and 0.25 mL to infect 100-mm and 35-mm dishes, respectively. Baculovirus was adsorbed to HepG2 cells for one hour at 37° C. with gentle rocking every 15 minutes to ensure that the inoculum was evenly distributed. The inoculum was then aspirated and HepG2 cells were washed two times with phosphate-buffered saline and refed MEM-FBS.
Conditioned medium was collected from HepG2 cells and subjected to centrifugation at 6,000 g for 5 minutes to I5- remove cellular debris. HBV particles were precipitated with 10% PEG 8000 and were concentrated by centrifugation at 12,000×g. Viral pellets were resuspended in 1 mL of MEM-FBS and divided into two aliquots. One set of aliquots was treated with 750 μg/mL Pronase for one hour and then with 500 mg/mL DNase 1 for one hour. Both sets of aliquots were then digested with Proteinase K, and extracted with phenol and chloroform. DNA was precipitated with 0.1 volume of 3 mol/L sodium acetate and 1 volume of isopropanol. Ten micrograms of transfer RNA was added as a carrier during precipitation. Pellets were resuspended in 25 μL of TE and digested with 0.5 mg/mL RNase for 1 hour. DNA was then analyzed by electrophoresis and Southern blotting.
(§3) 3TC was a gift of BioChem Therapeutic Inc. (Laval, Quebec, Canada). […] Medium containing 3TC was prepared daily as needed using fresh aliquots of 3TC.

HBV [2] = experiment: Intracellular HBV replicative intermediates in HBV baculovirus infected HepG2 cells (Southern blot, densitometry); settings: 50 pfu/cell
Description: On the indicated days (3, 6, and 9 days of drug treatment) HBV replication in HepG2 cultures was assessed by examining extracellular HBV DNA and intracellular replicative intermediates.
as §1, §2
HBV core particles were isolated from the cytoplasmic fraction of HepG2 cells lysed in 0.5% Np40. Cytoplasmic extracts were adjusted to 10 mmol/L MgCl2 and unprotected DNA was removed by an incubation with 500 μg/mL DNasel for 1 hour at 37° C. Samples were then adjusted to 50 mmol/L ethylenediaminetetraacetic acid, 50 mmol/L Tris, 0.5% sodium dodecyl sulfate, and digested with 500 μg/mL. Proteinase K for 1.5 hours at 37° C. Following sequential phenol and chloroform extractions, nucleic acids were recovered by ethanol precipitation. Nucleic acids were resuspended in 50 μL TE (10 mmol/L Tris, 1 mmol/L ethylenediaminetetraacetic acid), normalized by OD260, and digested with 100 μg/mL RNase (Boehringer Mannheim, Indianapolis, Ind.) for one hour at 37° C. before analysis by electrophoresis and Southern blotting. A Molecular Dynamics (Sunnyvale, Calif.) 100A laser densitometer equipped with Quantity One software (Protein Databases Inc., Huntington Station, N.Y.) was used to analyze suitable exposures of Southern blots.
as §3

HBV [3] = experiment: Extracellular HBV DNA secreted by HBV baculovirus infected HepG2 cells (Southern blot, densitometry); settings: 0.2 μM 3TC, 10 day treatment

Q: Which results are given for `Nc1ccn([C@@H]2CS[C@H](CO)O2)c(=O)n1` [3TC, (−)-2′-dideoxy-3′-thiacytidine]?
A: extracellular HBV DNA, % Untreated Control (HBV [1]; 0.02 μM 3TC, P (from 16 h prior to infection), day 4 p.i. (3 days treatment), 50 pfu/cell): 69.8 % Untreated Control; extracellular HBV DNA, % Untreated Control (HBV [1]; 0.02 μM 3TC, P (from 16 h prior to infection), day 7 p.i. (6 days treatment), 50 pfu/cell): 60.6 % Untreated Control; extracellular HBV DNA, % Untreated Control (HBV [1]; 0.02 μM 3TC, P (from 16 h prior to infection), day 10 p.i. (9 days treatment), 50 pfu/cell): 38.1 % Untreated Control; extracellular HBV DNA, % Untreated Control (HBV [1]; 0.02 μM 3TC, T (from 24 h p.i.), day 4 p.i. (3 days treatment), 50 pfu/cell): 68.1 % Untreated Control; extracellular HBV DNA, % Untreated Control (HBV [1]; 0.02 μM 3TC, T (from 24 h p.i.), day 7 p.i. (6 days treatment), 50 pfu/cell): 39.6 % Untreated Control; extracellular HBV DNA, % Untreated Control (HBV [1]; 0.02 μM 3TC, T (from 24 h p.i.), day 10 p.i. (9 days treatment), 50 pfu/cell): 33.0 % Untreated Control; reduction of extracellular HBV DNA (HBV [1]; 0.02 μM 3TC, nine day treatment, moi 50 pfu/cell): 67%; reduction of HBV DNA in the medium (HBV [1]; 0.02 μM 3TC, three days of treatment, moi 50 pfu/cell): about 30%; extracellular HBV DNA, % Untreated Control (HBV [1]; 0.2 μM 3TC from 24 h p.i., moi 25, day 4 p.i. (3 days treatment)): 4.8 % Untreated Control; extracellular HBV DNA, % Untreated Control (HBV [1]; 0.2 μM 3TC from 24 h p.i., moi 25, day 7 p.i. (6 days treatment)): 0.5 % Untreated Control; extracellular HBV DNA, % Untreated Control (HBV [1]; 0.2 μM 3TC from 24 h p.i., moi 50, day 4 p.i. (3 days treatment)): 13.9 % Untreated Control; extracellular HBV DNA, % Untreated Control (HBV [1]; 0.2 μM 3TC from 24 h p.i., moi 50, day 7 p.i. (6 days treatment)): 3.5 % Untreated Control; extracellular HBV DNA, % Untreated Control (HBV [1]; 0.2 μM 3TC from 24 h p.i., moi 100, day 4 p.i. (3 days treatment)): 27.2 % Untreated Control; extracellular HBV DNA, % Untreated Control (HBV [1]; 0.2 μM 3TC from 24 h p.i., moi 100, day 7 p.i. (6 days treatment)): 3.4 % Untreated Control; extracellular HBV DNA, % Untreated Control (HBV [1]; 0.2 μM 3TC from 24 h p.i., moi 200, day 4 p.i. (3 days treatment)): 20.7 % Untreated Control; extracellular HBV DNA, % Untreated Control (HBV [1]; 0.2 μM 3TC from 24 h p.i., moi 200, day 7 p.i. (6 days treatment)): 2.2 % Untreated Control; extracellular HBV DNA, % Untreated Control (HBV [1]; 0.2 μM 3TC from 24 h p.i., moi 400, day 4 p.i. (3 days treatment)): 18.7 % Untreated Control; extracellular HBV DNA, % Untreated Control (HBV [1]; 0.2 μM 3TC from 24 h p.i., moi 400, day 7 p.i. (6 days treatment)): 4.7 % Untreated Control; extracellular HBV DNA, % Untreated Control (HBV [1]; 0.2 μM 3TC, P (from 16 h prior to infection), day 4 p.i. (3 days treatment), 50 pfu/cell): 10.1 % Untreated Control; extracellular HBV DNA, % Untreated Control (HBV [1]; 0.2 μM 3TC, P (from 16 h prior to infection), day 7 p.i. (6 days treatment), 50 pfu/cell): 2.4 % Untreated Control; extracellular HBV DNA, % Untreated Control (HBV [1]; 0.2 μM 3TC, P (from 16 h prior to infection), day 10 p.i. (9 days treatment), 50 pfu/cell): 0.8 % Untreated Control; extracellular HBV DNA, % Untreated Control (HBV [1]; 0.2 μM 3TC, T (from 24 h p.i.), day 4 p.i. (3 days treatment), 50 pfu/cell): 13.4 % Untreated Control; extracellular HBV DNA, % Untreated Control (HBV [1]; 0.2 μM 3TC, T (from 24 h p.i.), day 7 p.i. (6 days treatment), 50 pfu/cell): 5.6 % Untreated Control; extracellular HBV DNA, % Untreated Control (HBV [1]; 0.2 μM 3TC, T (from 24 h p.i.), day 10 p.i. (9 days treatment), 50 pfu/cell): 1.9 % Untreated Control; reduction of extracellular HBV DNA (HBV [1]; 0.2 μM 3TC, six days of treatment, 25 pfu of baculovirus): > 99%; average reduction of extracellular HBV DNA (HBV [1]; 0.2 μM 3TC, six days of treatment, multiplicities 50 to 400 pfu/cell): greater than 96%; extracellular HBV DNA, % Untreated Control (HBV [1]; 2.0 μM 3TC, P (from 16 h prior to infection), day 4 p.i. (3 days treatment), 50 pfu/cell): 1.3 % Untreated Control; extracellular HBV DNA, % Untreated Control (HBV [1]; 2.0 μM 3TC, P (from 16 h prior to infection), day 7 p.i. (6 days treatment), 50 pfu/cell): 1.2 % Untreated Control; extracellular HBV DNA, % Untreated Control (HBV [1]; 2.0 μM 3TC, P (from 16 h prior to infection), day 10 p.i. (9 days treatment), 50 pfu/cell): 0.8 % Untreated Control; extracellular HBV DNA, % Untreated Control (HBV [1]; 2.0 μM 3TC, T (from 24 h p.i.), day 4 p.i. (3 days treatment), 50 pfu/cell): 2.4 % Untreated Control; extracellular HBV DNA, % Untreated Control (HBV [1]; 2.0 μM 3TC, T (from 24 h p.i.), day 7 p.i. (6 days treatment), 50 pfu/cell): 2.4 % Untreated Control; extracellular HBV DNA, % Untreated Control (HBV [1]; 2.0 μM 3TC, T (from 24 h p.i.), day 10 p.i. (9 days treatment), 50 pfu/cell): 0.8 % Untreated Control; reduction of extracellular HBV DNA (HBV [1]; 2.0 μM 3TC, nine days of treatment, moi 50 pfu/cell): more than 99%; intracellular HBV replicative intermediates, % Untreated Control (HBV [2]; 0.02 μM 3TC, P (from 16 h prior to infection), day 4 p.i. (3 days treatment)): 82.5 % Untreated Control; intracellular HBV replicative intermediates, % Untreated Control (HBV [2]; 0.02 μM 3TC, P (from 16 h prior to infection), day 7 p.i. (6 days treatment)): 100 % Untreated Control; intracellular HBV replicative intermediates, % Untreated Control (HBV [2]; 0.02 μM 3TC, P (from 16 h prior to infection), day 10 p.i. (9 days treatment)): 68.2 % Untreated Control; intracellular HBV replicative intermediates, % Untreated Control (HBV [2]; 0.02 μM 3TC, T (from 24 h p.i.), day 4 p.i. (3 days treatment)): 57.4 % Untreated Control; intracellular HBV replicative intermediates, % Untreated Control (HBV [2]; 0.02 μM 3TC, T (from 24 h p.i.), day 7 p.i. (6 days treatment)): 100 % Untreated Control; intracellular HBV replicative intermediates, % Untreated Control (HBV [2]; 0.02 μM 3TC, T (from 24 h p.i.), day 10 p.i. (9 days treatment)): 59.6 % Untreated Control; intracellular HBV replicative intermediates, % Untreated Control (HBV [2]; 0.2 μM 3TC, P (from 16 h prior to infection), day 4 p.i. (3 days treatment)): 41.7 % Untreated Control; intracellular HBV replicative intermediates, % Untreated Control (HBV [2]; 0.2 μM 3TC, P (from 16 h prior to infection), day 7 p.i. (6 days treatment)): 20.0 % Untreated Control; intracellular HBV replicative intermediates, % Untreated Control (HBV [2]; 0.2 μM 3TC, P (from 16 h prior to infection), day 10 p.i. (9 days treatment)): 6.5 % Untreated Control; intracellular HBV replicative intermediates, % Untreated Control (HBV [2]; 0.2 μM 3TC, T (from 24 h p.i.), day 4 p.i. (3 days treatment)): 35.0 % Untreated Control; intracellular HBV replicative intermediates, % Untreated Control (HBV [2]; 0.2 μM 3TC, T (from 24 h p.i.), day 7 p.i. (6 days treatment)): 16.7 % Untreated Control; intracellular HBV replicative intermediates, % Untreated Control (HBV [2]; 0.2 μM 3TC, T (from 24 h p.i.), day 10 p.i. (9 days treatment)): 6.7 % Untreated Control; intracellular HBV replicative intermediates, % Untreated Control (HBV [2]; 2.0 μM 3TC, P (from 16 h prior to infection), day 4 p.i. (3 days treatment)): 8.2 % Untreated Control; intracellular HBV replicative intermediates, % Untreated Control (HBV [2]; 2.0 μM 3TC, P (from 16 h prior to infection), day 7 p.i. (6 days treatment)): 7.1 % Untreated Control; intracellular HBV replicative intermediates, % Untreated Control (HBV [2]; 2.0 μM 3TC, P (from 16 h prior to infection), day 10 p.i. (9 days treatment)): 1.3 % Untreated Control; intracellular HBV replicative intermediates, % Untreated Control (HBV [2]; 2.0 μM 3TC, T (from 24 h p.i.), day 4 p.i. (3 days treatment)): 12.1 % Untreated Control; intracellular HBV replicative intermediates, % Untreated Control (HBV [2]; 2.0 μM 3TC, T (from 24 h p.i.), day 7 p.i. (6 days treatment)): 8.5 % Untreated Control; intracellular HBV replicative intermediates, % Untreated Control (HBV [2]; 2.0 μM 3TC, T (from 24 h p.i.), day 10 p.i. (9 days treatment)): 2.1 % Untreated Control; reduction in extracellular DNA (HBV [3]): ~98%
